Reference: paper PMC11558545, “Mechanistic Insights into the Function of 14-3-3 Proteins as Negative Regulators of Brassinosteroid Signaling in Arabidopsis” (Plant and Cell Physiology, 2024)
Square brackets hold non-standard residues; d marks the D form. Peptide text beside a SMILES is read from it. pS = N[C@@H](COP(=O)(O)O)C(=O)O

Assays:
[1] = target: T1, Arabidopsis 14-3-3 isoform kappa (14-3-3κ) (Arabidopsis thaliana, UniProt P48348); assay: biochemical; format: binding
T1 construct: Full-length At14-3-3-κ^1−248 (Uniprot-ID P48348, http://uniprot.org); thioredoxin A (trxA) fusion (N, cleaved yes); 8xHis (N, cleaved yes); StrepII (N, cleaved yes); made in house; host or cells: E. coli BL21 (DE3) RIL
Excerpt: Full-length At14-3-3-κ^1−248 (Uniprot-ID P48348, http://uniprot.org), At14-3-3-λ^1−248 (P48349), At14-3-3-ω^1−259 (Q01525) or C-terminal truncated At14-3-3-κ^1−240, At14-3-3-λ^1−240 or At14-3-3-ω^1−237 isoforms and BIN2^7−380 from Arabidopsis were cloned from synthetic genes codon-optimized for expression in E. coli (Geneart, Thermofisher, Tauberbischofsheim, Germany) into vector pMH-HStrxT providing an N-terminal thioredoxin A (trxA) fusion protein containing 8xHis and StrepII affinity tags, and a tobacco etch virus protease (TEV) recognition site. Protein expression in E. coli BL21 (DE3) RIL grown to OD600nm= 0.6 was induced with 0.2 mM ispropyl β-D-galactoside in terrific broth at 16°C for 16 h. Cells were collected by centrifugation at 4500 × g for 30 min, washed in PBS buffer, centrifuged again at 4500 × g for 15 min and snap-frozen in liquid N2. For protein purification cells were resuspended in buffer A (20 mM Tris–HCl pH 8.0, 500 mM NaCl), and lysed by sonication (Branson DS450). The lysate was cleared by centrifugation at 7000 × g for 60 min and filtrated using a 0.45 µm molecular weight cutoff filter (Pall Corporation, Port Washington, NY, USA). The supernatant was loaded onto a Ni^2+ affinity column (HisTrap HP 5 mL, Cytiva Life Sciences, Freiburg im Breisgau, Germany), washed with buffer A and eluted in buffer A supplemented with 250 mM imidazole pH 8.0. […]

[2] = target: T2, 14-3-3 ω (biotinylated dimer on streptavidin chip) (Arabidopsis thaliana, UniProt Q01525); assay: Grating coupled interferometry (GCI) binding kinetics versus 14-3-3 ω; conditions: 25°C, 1-to-1 (2:2) binding model
T2 construct: Full-length At14-3-3-κ^1−248 (Uniprot-ID P48348, http://uniprot.org), At14-3-3-λ^1−248 (P48349), At14-3-3-ω^1−259 (Q01525); thioredoxin A (trxA) fusion (N, cleaved yes); 8xHis (N, cleaved yes); StrepII (N, cleaved yes); biotin (chemical, EZ-Link NHS-Biotin on amines); made in house; host or cells: E. coli BL21 (DE3) RIL
T2 sequence (Q01525 1-259): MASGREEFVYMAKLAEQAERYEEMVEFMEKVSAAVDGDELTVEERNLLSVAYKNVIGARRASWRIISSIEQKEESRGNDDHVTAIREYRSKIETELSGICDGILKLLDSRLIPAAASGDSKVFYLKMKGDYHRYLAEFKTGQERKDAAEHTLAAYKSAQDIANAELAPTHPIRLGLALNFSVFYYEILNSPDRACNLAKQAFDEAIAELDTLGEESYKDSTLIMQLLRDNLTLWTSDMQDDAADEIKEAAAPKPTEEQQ
Description: The binding kinetics of 14-3-3 ω versus the BZR1^169−175 and pBZR1^169−175 peptides (Table 1) were assessed on a Creoptix® WAVE system using a streptavidin-coated 4PCH WAVEchip® (long polycarboxylate matrix; Creoptix AG, Switzerland). Chips were first conditioned with 100 mM sodium borate pH 9.0, 1 m NaCl. Next, after the activation of the chip surface with a 1:1 mix of 400 mM N-(3-dimethylaminopropyl)-N’-ethylcarbodiimide hydrochloride and 100 mM N-[…] hydroxysuccinimide (Xantec, Germany), streptavidin was immobilized on the chip surface through the injection of 50 µg/ml streptavidin (ThermoFisher Scientific 43–4301) in 10 mM sodium acetate pH 5.0 until high density (∼10,000 pg/mm^2) was reached. Biotinylation of 14-3-3 ω for capturing onto streptavidin chip was performed by mixing equimolar amounts of protein and biotin (EZ-Link™ NHS-Biotin ThermoFisher Scientific). A total of 170 µM of 14-3-3 ω were incubated on ice with 170 µM of biotin (previously dissolved in water to 20 mM) for 1.5 min. The biotinylation was performed in 100 mM Hepes pH 8 and 150 mM NaCl. The biotinylated 14-3-3 ω dimer was purified by size exclusion chromatography in 20 mM Hepes pH 7.5 and 150 mM NaCl on a Superdex 10/300 increase column (Cytiva Life Sciences) to verify the homogeneity and to remove excess biotin. Gel-filtrated biotinylated 14-3-3 ω (0.45 mg/ml) was directly immobilized on the streptavidin-coated chip until a density of about 500 pg/ mm^2 was reached. The synthetic BRZ1^169−175 and pBZR1^169−175 peptides were dissolved in 20 mM Hepes and 150 mM NaCl buffer to a final concentration of 10 mM. Kinetic analysis of 14-3-3 ω and BZR1^169−175/pBZR1^169−175 interactions was performed at 25°C by flushing a dilution series of the analyte pBZR1 with a 2 dilution factor starting from 10 µM. Data analysis and data fitting were done using the Creoptix WAVEcontrol® software.

T1 sequence (P48348 whole entry, the tested form may be a part, canonical isoform): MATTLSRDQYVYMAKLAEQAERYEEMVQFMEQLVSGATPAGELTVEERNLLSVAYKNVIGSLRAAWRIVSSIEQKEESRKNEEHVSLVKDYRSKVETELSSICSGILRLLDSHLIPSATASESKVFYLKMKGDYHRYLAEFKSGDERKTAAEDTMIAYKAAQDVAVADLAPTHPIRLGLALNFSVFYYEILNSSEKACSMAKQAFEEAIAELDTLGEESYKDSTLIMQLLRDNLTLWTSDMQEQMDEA

Row | Compound | Kd [1] | Kd ([2]; Fig. 2D and text, read-out: KD, dissociation constant (GCI)) | kon ([2]; Fig. 2D, read-out: ka, association rate constant) | koff ([2]; Fig. 2D, read-out: kd, dissociation rate constant)
1 | CC(C)C[C@H](NC(=O)[C@H](CCC(=O)O)NC(=O)CNC(=O)[C@@H](N)CCCNC(=N)N)C(=O)N[C@@H](Cc1ccccc1)C(=O)N[C@@H](COP(=O)(O)O)C(=O)N[C@@H](C)C(=O)N1CCC[C@H]1C(=O)O [pBKI1^265-272] (H-RGELF[pS]AP-OH) | 15.9 ± 0.4 µM | – | – | –
2 | CC[C@H](C)[C@H](NC(=O)[C@@H](N)CCCNC(=N)N)C(=O)N[C@@H](CO)C(=O)N[C@@H](CC(N)=O)C(=O)N[C@@H](COP(=O)(O)O)C(=O)N[C@@H](C)C(=O)N1CCC[C@H]1C(=O)O [pBZR1^169-175] (H-RISN[pS]AP-OH) | – | 0.52 µM | 1.67e+06 M⁻¹ s⁻¹ | 0.87 s⁻¹
